Experiments:
Assay type in all cases: cell-based
C. albicans = assay: paper disc corrected zone of inhibition (CZOI) on Mueller Hinton agar
Description: (§1) The compounds tested in Example 1 were tested to determine their capacity to inhibit the growth of a variety of Gram-negative bacteria, Gram-positive bactgeria, fungi and yeast. In an exemplary method, Mueller Hinton agar plates were streaked with 500 μL of a 10^5 colony-forming units/mL culture and allowed to dry for at least one minute. A sterile paper disc (6 mm diameter) was then placed in the middle of each plate using sterile forceps. Twenty microliters of a solution of a known concentration of a test compound in filter-sterilized 95% ethanol were pipetted onto each test plate. Two streaked plates served as positive inhibitory controls and contained 6 mm sterile paper discs with standard tetracycline solutions. Two additional plates served as negative inhibition controls and each contained 6 mm sterile paper discs with 20 μL of filter-sterilized 95% ethanol. Two more plates served as positive growth controls and contained no paper disc or added antibacterial agent. The plates were incubated at 32.5±2° C. for 24±4 hours, after which the corrected zone of inhibition (“CZOI”) was determined as follows: For each plate, the length Y2 and width X2 of the test sample (paper disc) and length Y1 and width X1 of the clear zone were measured (FIG. 1). The CZOI was calculated from these values as shown by the equation below: [formula]

E. faecalis = assay: as above
Description: as §1

K. pneumoniae = assay: as above
Description: as §1

E. coli = assay: as above
Description: as §1

A. brasiliensis = assay: as above
Description: as §1

C. striatum = assay: as above
Description: as §1

S. aureus = assay: as above
Description: as §1

P. aeroginosa = assay: as above
Description: as §1

S. epidermidis = assay: as above
Description: as §1

P. acnes = assay: agar dilution method: growth index and MIC on P. acnes (single compounds and combinations)
Description: Several compounds including fatty acids such as DGLA, 15-OHEPA, and 15-HETrE were tested to determine their capacity to inhibit the growth of P. acnes. In an exemplary method, an agar dilution method was used to determine the minimum inhibitory concentration (MIC) of each tested compound. Briefly, the agar dilution method involved preparing a series of concentrations of each compound (e.g., nicotinamide, benzoyl peroxide, adapalene, metronidazole, DGLA, 15-OHEPA, and 15-HETrE) in a Reinforced Clostridial Agar (RCA) media that facilitates growth of P. acnes under anaerobic conditions. An inoculum of P. acnes was prepared by incubation of P. acnes for approximately seven days at 35-37° C. to achieve a ≧1.0 OD600 inoculum of P. acnes in RCM broth. A portion of this inoculum was then added to the surface of each plate as a 10 μL spot and incubated at 35-37° C. for 72 hours or more. Growth of P. acnes was then observed and compared to control plates in which no compound has been added, and positive inhibition plates prepared with erythromycin. […] The growth of P. acnes in the presence of nicotinamide, benzoyl peroxide, adapalene, metronidazole, DGLA, 15-OHEPA, and 15-HETrE was determined with varying concentrations of the compound (see, Table 2). Next, the MIC was determined as the concentration at which a marked reduction (+) occurs in the appearance of growth on the test plate (as per Clinical and Laboratory Standards Institute M11-A7). The compounds tested singly in Example 1 were tested in combination with one another to determine the capacity of the combination to inhibit the growth of P. acnes. In an exemplary method, the MIC was determined for each of the combination as described in Example 1. Briefly, test combinations included DGLA with nicotinamide, benzoyl peroxide, adapalene, or metronidazole; 15-HETrE with nicotinamide, benzoyl peroxide, adapalene, or metronidazole; and 15-OHEPA with nicotinamide, benzoyl peroxide, adapalene, or metronidazole. The tables below show the growth of P. acnes in the presence of 0.4 or 1.0 mg/mL DGLA with varying concentrations of nicotinamide, benzoyl peroxide, adapalene, or metronidazole (Table 3); the growth of P. acnes in the presence of 0.01 or 0.05 mg/mL 15-HETrE with varying concentrations of nicotinamide, benzoyl peroxide, adapalene, or metronidazole (Table 5); and the growth of P. acnes in the presence of 0.5 or 0.1 mg/mL 15-OHEPA with varying concentrations of nicotinamide, benzoyl peroxide, adapalene, or metronidazole (Table 7).

CCC=CCC(O)C=CC=CCC=CCC=CCCCC(=O)O (centres unmarked) [15-OHEPA, 15-Hydroxy-eicosa-5,8,11,13,17-pentaenoic acid]
1.75 mm: Average CZOI (K. pneumoniae; 0.075 mg/mL) | Average CZOI (E. coli; 0.075 mg/mL) | Average CZOI (A. brasiliensis; 0.025 mg/mL) | Average CZOI (P. aeroginosa; 0.075 mg/mL)
0.001 mg/mL: Lowest Concentration With Observed Inhibition (C. albicans; C. albicans) | Lowest Concentration With Observed Inhibition (E. faecalis; E. faecalis) | Most Effective Concentration Observed (E. faecalis; E. faecalis) | Lowest Concentration With Observed Inhibition (K. pneumoniae; K. pneumoniae) | Most Effective Concentration Observed (K. pneumoniae; K. pneumoniae) | Lowest Concentration With Observed Inhibition (E. coli; E. coli) | Most Effective Concentration Observed (E. coli; E. coli) | Lowest Concentration With Observed Inhibition (A. brasiliensis; A. brasiliensis) | Lowest Concentration With Observed Inhibition (C. striatum; C. striatum) | Lowest Concentration With Observed Inhibition (P. aeroginosa; P. aeroginosa) | Lowest Concentration With Observed Inhibition (S. epidermidis; S. epidermidis)
2.25 mm: Average CZOI (C. albicans; 0.075 mg/mL) | Average CZOI (E. faecalis; 0.05 mg/mL) | Average CZOI (K. pneumoniae; 0.01 mg/mL) | Average CZOI (K. pneumoniae; 0.1 mg/mL) | Average CZOI (S. aureus; 0.075 mg/mL) | Average CZOI (S. epidermidis; 0.05 mg/mL)
0.025 mg/mL: Lowest Concentration With Observed Inhibition (S. aureus; S. aureus)
1.5 mm: Average CZOI (C. albicans; 0.025 mg/mL) | Average CZOI (E. faecalis; 0.025 mg/mL) | Average CZOI (E. faecalis; 0.1 mg/mL) | Average CZOI (K. pneumoniae; 0.025 mg/mL) | Average CZOI (E. coli; 0.1 mg/mL) | Average CZOI (C. striatum; 0.1 mg/mL) | Average CZOI (P. aeroginosa; 0.05 mg/mL) | Average CZOI (P. aeroginosa; 0.1 mg/mL)
0 mm: Average CZOI (S. aureus; 0.01 mg/mL)
3.5 mm: Average CZOI (C. striatum; 0.05 mg/mL)
3.25 mm: Average CZOI (C. striatum; 0.01 mg/mL)
0.05 mg/mL: Most Effective Concentration Observed (C. albicans; C. albicans) | Most Effective Concentration Observed (C. striatum; C. striatum)
0.075 mg/mL: Most Effective Concentration Observed (A. brasiliensis; A. brasiliensis) | Most Effective Concentration Observed (S. aureus; S. aureus) | Most Effective Concentration Observed (P. aeroginosa; P. aeroginosa) | Most Effective Concentration Observed (S. epidermidis; S. epidermidis)
2.75 mm: Average CZOI (A. brasiliensis; 0.1 mg/mL)
1.25 mm: Average CZOI (E. faecalis; 0.075 mg/mL) | Average CZOI (E. coli; 0.025 mg/mL) | Average CZOI (E. coli; 0.05 mg/mL) | Average CZOI (S. aureus; 0.05 mg/mL) | Average CZOI (P. aeroginosa; 0.01 mg/mL) | Average CZOI (S. epidermidis; 0.1 mg/mL)
1 mm: Average CZOI (C. albicans; 0.01 mg/mL) | Average CZOI (C. albicans; 0.1 mg/mL) | Average CZOI (K. pneumoniae; 0.05 mg/mL) | Average CZOI (S. aureus; 0.025 mg/mL) | Average CZOI (P. aeroginosa; 0.025 mg/mL) | Average CZOI (S. epidermidis; 0.01 mg/mL)
no effect on its own: effect on growth of P. acnes on its own (P. acnes; 0.05 mg/mL)
3 mm: Average CZOI (C. striatum; 0.025 mg/mL) | Average CZOI (S. epidermidis; 0.075 mg/mL)
0.25 mm: Average CZOI (A. brasiliensis; 0.01 mg/mL)
3.75 mm: Average CZOI (A. brasiliensis; 0.075 mg/mL)
2 mm: Average CZOI (E. coli; 0.01 mg/mL) | Average CZOI (A. brasiliensis; 0.05 mg/mL) | Average CZOI (C. striatum; 0.075 mg/mL) | Average CZOI (S. aureus; 0.1 mg/mL) | Average CZOI (S. epidermidis; 0.025 mg/mL)
0.05 to 0.075 mg/mL: MIC (P. acnes; Cutibacterium acnes, compound alone, read-out: MIC (mg/mL) as per P-11-0007 or P-11-0008 Addendum A)
2.5 mm: Average CZOI (C. albicans; 0.05 mg/mL) | Average CZOI (E. faecalis; 0.01 mg/mL)
